B1: GST-TAT-ASK(minimum) (other)
chain: YGRKKRRQRRRDIRYYIEQKKKELYLLKKSSTSVRDGGKRVGSGAQKTRTGRLKKPFVKVEDMSQLYRPFYLQLTNMPFINYSIQKPCSPFDVDKPSSMQKQTQVKLRIQTDGDKYGGTSIQLQLKEKKKKGYCECCLQKYEDLETHLLSEQHRNFAQSNQYQVVDDIVSKLVFDFVEYEKDTPKKK
notes: also called GST-ASK; partial ASK

Key:
Cdc7-ASK complex = molecular target: T1, Cdc7-ASK complex (Homo sapiens, UniProt O00311); experiment: ELISA system for measuring inhibition of Cdc7-ASK complex phosphorylation activity (GST-Mcm2 (1-130 a.a.) substrate, anti-Mcm2-phospho-S17 antibody); assay type: biochemical; settings: for concentration-dependent inhibitory effect for Cdc7-ASK complex: ELISA, inhibitor dilution series, FIG. 8
T1 construct: made in house; host or cells: E. coli C600 lon-
T1 sequence (O00311 14-574 limits assumed, one chain of several): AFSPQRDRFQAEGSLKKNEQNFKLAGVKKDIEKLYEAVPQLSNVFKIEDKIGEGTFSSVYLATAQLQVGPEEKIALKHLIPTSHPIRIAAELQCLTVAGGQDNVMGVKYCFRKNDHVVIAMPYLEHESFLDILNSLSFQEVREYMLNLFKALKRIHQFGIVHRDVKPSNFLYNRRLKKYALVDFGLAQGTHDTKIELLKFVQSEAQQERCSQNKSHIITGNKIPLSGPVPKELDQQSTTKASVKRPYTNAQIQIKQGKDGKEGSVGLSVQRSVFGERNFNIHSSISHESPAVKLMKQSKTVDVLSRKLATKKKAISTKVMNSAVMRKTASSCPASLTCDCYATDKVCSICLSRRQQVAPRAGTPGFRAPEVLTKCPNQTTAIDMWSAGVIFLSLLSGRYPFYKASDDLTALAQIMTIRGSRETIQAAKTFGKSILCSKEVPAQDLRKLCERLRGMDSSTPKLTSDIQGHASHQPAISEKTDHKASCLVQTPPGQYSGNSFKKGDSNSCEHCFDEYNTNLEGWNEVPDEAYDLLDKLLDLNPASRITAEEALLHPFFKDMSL
Method: GST-Mcm2 (1-130 a.a.) and GST-Mcm2 (1-80 a.a.) were diluted to 5 μg/ml using 0.1 M carbonate buffer, pipetted at 50 μl/well in to each well of a microtiter plate for ELISA, and then sensitized overnight at 4° C. The sensitizing solution was removed, a blocking solution (1% BSA, 5% sucrose and 0.1% NaN3/PBS) was pipetted in to each well at 200 μl/well, and the plate was allowed to stand for about one hour at room temperature. The blocking solution was then completely removed. The plates were then air-dried in a draft chamber, and stored at 4° C. until use. GST-Mcm2 (1-130 a.a.) and GST-Mcm2 (1-80 a.a.) were immobilized on the inner walls of the microtiter plates by this procedure.
A recombinant Cdc7-ASK complex dilution series was prepared by diluting from one-fold (×1) to 64-fold in two-fold increments using a phosphorylation buffer. 50 μl aliquots of this solution were added to the wells of the immobilized plates (a protein phosphorylation reaction). After incubating at 30° C. for a fixed period of time, the phosphorylation reaction solution was discarded and each well was amply washed four or more times with PBS. […] The primary antibody reaction solution was then discarded and each well was amply washed four or more times with PBS. Anti-rabbit immunoglobulin antibody (secondary antibody, MBL) labeled with horseradish peroxidase (HRP) was then diluted 1000-fold with PBS and added to each well in 50 μl aliquots, then allowed to react for 30 to 60 minutes at room temperature (secondary antibody reaction). The secondary antibody reaction solution was then discarded and each well was washed four or more times with PBS. A coloring substrate solution was then added to each well in 50 μl aliquots, and color was developed for five to 20 minutes (coloring reaction). The coloring reaction was stopped by adding 50 μl aliquots of reaction stopping solution to each well, and the optical absorbance at 450 nm was measured using a microplate reader. […]

HA-huCdc7 (wild type) = molecular target: T2, HA-huCdc7 (wild type) (human, UniProt O00311 14-574); experiment: co-purification on glutathione Sepharose 4B from E. coli co-expression, SDS-PAGE with silver staining
T2 construct: also called HA-Cdc7
T2 sequence (O00311 other isoform, or with tags, fused parts or gaps): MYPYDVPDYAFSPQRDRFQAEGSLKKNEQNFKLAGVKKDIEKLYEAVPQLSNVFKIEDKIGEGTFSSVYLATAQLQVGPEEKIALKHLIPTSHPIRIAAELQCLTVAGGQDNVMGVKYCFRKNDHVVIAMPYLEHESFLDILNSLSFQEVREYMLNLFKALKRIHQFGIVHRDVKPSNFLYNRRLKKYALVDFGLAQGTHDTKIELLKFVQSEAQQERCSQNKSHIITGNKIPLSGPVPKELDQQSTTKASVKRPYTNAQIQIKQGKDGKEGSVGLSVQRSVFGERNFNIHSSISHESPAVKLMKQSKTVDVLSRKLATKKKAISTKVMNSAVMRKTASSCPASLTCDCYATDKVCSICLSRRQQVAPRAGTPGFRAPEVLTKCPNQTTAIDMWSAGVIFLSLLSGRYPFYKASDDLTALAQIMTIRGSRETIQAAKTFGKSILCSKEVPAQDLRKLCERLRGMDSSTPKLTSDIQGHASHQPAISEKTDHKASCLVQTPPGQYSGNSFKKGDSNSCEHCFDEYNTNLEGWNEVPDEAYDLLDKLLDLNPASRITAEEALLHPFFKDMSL

Row | Molecule | IC50 (Cdc7-ASK complex) | concentration-dependent inhibitory effect for Cdc7-ASK complex (Cdc7-ASK complex) | binding result (HA-huCdc7 (wild type))
1 | COC(=O)[C@@]1(O)C[C@H]2O[C@]1(C)n1c3ccccc3c3c4c(c5c6ccccc6n2c5c31)C(=O)NC4 [K-252a] | 2000 nM | concentration-dependent | –
2 | CC[C@H](CO)Nc1nc(NCc2ccccc2)c2ncn(C(C)C)c2n1 [Roscovitine] | – | not observed | –
3 | B1 | – | – | binds
